System: MDAMB231 cells
Test: BrdU cellular proliferation, tumor cells
Assay type: cell-based
Conditions: MDAMB231, 24 h, 0.2 µg/mL (minimum decrease)
Description: The method of Bomodeoxyuridine (BrdU) quantification was carried out according to the Standard Operational Protocols Nos. 10 and 12 of the Laboratory of Clinical Cytology of the Faculty of Pharmaceutical Sciences of Ribeirao Preto (FCFRP -USP). In this method, for the BrdU quantification, cells were plated in 96-well sterile plates for cell culture with a cap at the density of 2 × 10^4 cells/well for treatments lasting 24 h and 1 × 10^4 cells/well for treatments with 48 h or more, completing the volume to 100 µL with culture medium. The plates were incubated for 8-16 h in an incubator at 37° C. and 5% CO2. The next day, the treatments were prepared in culture medium, applying 200 µL/well at the desired concentration, and the plates were placed in an incubator at 37° C. and 5% CO2 for the duration of treatment. After the treatment period, 20 µL/well of a BrdU-labeling was added and incubated at 37° C. and 5% CO2 for 2.5 h. After incubation with BrdU labeling, the plates were stored at 2-4° C. up to 1 week. […] Substrate was developed for 15 minutes and reaction was stopped with HCl 6 M solution and read in a spectrophotometer at 495 nm with endpoint.
The calculation of cell proliferation was performed using the formula: […]
O.D.: optical density captured by spectrophotometer NOTE: The Basal O.D. is the one found in the blank wells. […]

Question: Which “decrease of proliferation rate (BrdU)” value does the source give for `CSCC[C@H](N)C(=O)N[C@@H](Cc1ccccc1)C(=O)N[C@@H](Cc1ccc(O)cc1)C(=O)N1CCC[C@H]1C(=O)N[C@@H](CC(=O)O)C(=O)N[C@@H](CO)C(=O)N[C@@H](CCCNC(=N)N)C(=O)N[C@@H](CS)C(=O)N[C@@H](CCCNC(=N)N)C(=O)NCC(=O)N1CCC[C@H]1C(=O)N[C@@H](CO)C(=O)N[C@@H](CCC(=O)O)C(=O)N[C@H](C(=O)O)[C@@H](C)O` [3-NAntC, [H]-MFYPDSRCRGPSET-[OH]] here?
Answer: 33%

— patent US20230364204A1, “Bioactive Peptides, Compositions, Production Process, and Use of Bioactive Peptides as Anti-Tumoral Agents” (priority 2022, published 2023)
